Values quoted from earlier work in article PMC3775475 (European journal of medicinal chemistry, 2013).
pKi: −log10 of the molar value.

Target: kappa-OR (UniProt P41145)
Sequence (P41145 whole entry): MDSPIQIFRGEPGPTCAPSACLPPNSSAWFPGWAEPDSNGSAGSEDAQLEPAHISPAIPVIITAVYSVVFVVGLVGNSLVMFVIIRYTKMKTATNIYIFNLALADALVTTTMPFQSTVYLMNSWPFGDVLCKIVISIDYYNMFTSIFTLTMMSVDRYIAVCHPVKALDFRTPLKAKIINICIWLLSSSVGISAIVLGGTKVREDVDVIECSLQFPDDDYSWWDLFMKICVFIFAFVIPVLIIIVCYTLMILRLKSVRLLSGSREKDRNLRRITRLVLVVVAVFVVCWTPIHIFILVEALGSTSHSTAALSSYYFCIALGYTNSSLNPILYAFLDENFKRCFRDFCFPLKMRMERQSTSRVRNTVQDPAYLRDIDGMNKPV

| Molecule | pKi |
| --- | --- |
| CC[C@@H](C)[C@@H](NC(=O)[C@@H](Cc1ccccc1)NC(=O)[C@H](N)Cc1ccccc1)C(=O)N[C@H](CCCNC(=N)N)C(N)=O [compound 4] | 8.62 |
| ff(D-nle)r-NH2 (R1 f, R2 f, R3 nle, R4 r) [compound 1] | 8.92 |
